# Reference: ChEMBL document CHEMBL1201862, “PubChem BioAssay data set” (2004)
# Activity calls are given as the source filed them.
# Key:
# [1] = cytotoxicity in HEK-293T cells, dose response, cytotoxicity control for BCR NF-kB inhibitor project, luminescence, B-cell screen hits (AID 489021); type: functional, cell-based;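 note: HEK-293T cells carrying an NF-kB luciferase reporter; cells exposed to compound for about 14 hours before viability readout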
# [2] = HepG2 cell cytotoxicity, dose response, cytotoxicity control, plate reader, cherry-pick, antagonist series (AID 743416); type: functional, cell-based
# [3] = A549 cell cytotoxicity, dose response, cytotoxicity control, plate reader, cherry-pick, antagonist series (AID 743412); type: functional, cell-based
# [4] = cells; type: functional, cell-based
# [5] = cells; type: functional, cell-based; remark: listed apart in the source
# [6] = molecular target: Mitogen-activated protein kinase 10 (Homo sapiens, UniProt P53779); assay: Dose response biochemical screening assay for inhibitors of c-Jun N-Terminal Kinase 3 (JNK3). [Related pubchem assays: 746 ]
# Chain of Mitogen-activated protein kinase 10 (P53779 whole entry): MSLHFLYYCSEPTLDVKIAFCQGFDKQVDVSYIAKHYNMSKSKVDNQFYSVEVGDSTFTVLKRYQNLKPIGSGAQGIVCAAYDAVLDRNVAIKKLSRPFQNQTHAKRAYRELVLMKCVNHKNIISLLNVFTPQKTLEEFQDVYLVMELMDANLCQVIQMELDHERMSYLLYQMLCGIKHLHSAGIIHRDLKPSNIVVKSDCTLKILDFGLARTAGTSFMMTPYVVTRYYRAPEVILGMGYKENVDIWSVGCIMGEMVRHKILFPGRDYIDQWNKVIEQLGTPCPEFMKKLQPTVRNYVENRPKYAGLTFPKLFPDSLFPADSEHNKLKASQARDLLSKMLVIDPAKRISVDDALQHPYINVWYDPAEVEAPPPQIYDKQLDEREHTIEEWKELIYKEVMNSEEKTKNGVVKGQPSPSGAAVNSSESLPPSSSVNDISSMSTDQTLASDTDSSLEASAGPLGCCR
# [7] = molecular target: Eukaryotic translation initiation factor 4E (Mus musculus, UniProt P63073); assay: eIF4E–eIF4G protein interaction inhibitors, dose response, biochemical, TR-FRET (AID 855); type: functional;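 note: potency for disrupting eIF4E binding to eIF4GI seen as loss of FRET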
# Chain of Eukaryotic translation initiation factor 4E (P63073 whole entry): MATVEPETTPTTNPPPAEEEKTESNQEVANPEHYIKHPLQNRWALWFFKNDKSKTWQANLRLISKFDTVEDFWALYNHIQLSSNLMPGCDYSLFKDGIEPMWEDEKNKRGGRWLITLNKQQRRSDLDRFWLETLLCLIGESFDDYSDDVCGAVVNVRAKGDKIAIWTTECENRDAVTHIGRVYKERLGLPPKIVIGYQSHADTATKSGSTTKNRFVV
# [8] = miR-122 activators in hepatoma reporter cells, dose response, cell-based, Huh7 psiCHECK-miR122, Renilla luciferase, cherry-picked (AID 651956); type: functional;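 note: huh7 hepatoma cells stably carrying a psiCHECK-2 miR-122 sensor plasmid; renilla luciferase signal reporting endogenous miR-122 activity after 48 h compound exposure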
# [9] = HEK293T cytotoxicity, dose response, cytotoxicity control for miR-122 modulator project, cell-based, activator set, cherry-pick (AID 720690); type: functional;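 note: HEK293T human cells scored for general mammalian cytotoxicity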
# [10] = non-specific cell cytotoxicity, dose response, cytotoxicity control for PAX8 inhibitor project, plate reader, dry powder samples (AID 743021); type: functional, cell-based
# [11] = molecular target: Paired box protein Pax-8 (Homo sapiens, UniProt Q06710); assay: inhibitors of PAX8-driven TPO luciferase reporter, dose response, RMG-I cells, cherry-pick (AID 687027); type: functional, cell-based;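 note: luciferase reporter driven by Pax8 target thyroperoxidase promoter measured by SteadyGlo luminescence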
# Chain of Paired box protein Pax-8 (Q06710 whole entry): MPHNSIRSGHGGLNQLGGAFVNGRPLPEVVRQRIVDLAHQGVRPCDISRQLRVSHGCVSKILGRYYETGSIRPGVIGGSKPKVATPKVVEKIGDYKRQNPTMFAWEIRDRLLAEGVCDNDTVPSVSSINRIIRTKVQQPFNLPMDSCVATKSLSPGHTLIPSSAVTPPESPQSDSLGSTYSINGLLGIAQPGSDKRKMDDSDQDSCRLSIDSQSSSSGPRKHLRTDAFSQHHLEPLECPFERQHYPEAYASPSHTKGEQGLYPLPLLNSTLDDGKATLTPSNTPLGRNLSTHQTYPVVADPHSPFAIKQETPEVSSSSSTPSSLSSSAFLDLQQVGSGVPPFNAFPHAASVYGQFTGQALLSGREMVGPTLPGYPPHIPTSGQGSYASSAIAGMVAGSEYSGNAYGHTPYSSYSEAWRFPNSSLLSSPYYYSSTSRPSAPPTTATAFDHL
# [12] = molecular target: T1, Estrogen receptor beta (Homo sapiens, UniProt Q92731);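 note: recombinant ER-beta bound to coactivator SRC1 peptide in presence of estradiol agonist; inhibitors block coactivator peptide binding and lower the FRET signal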
# T1 sequence (Q92731 whole entry): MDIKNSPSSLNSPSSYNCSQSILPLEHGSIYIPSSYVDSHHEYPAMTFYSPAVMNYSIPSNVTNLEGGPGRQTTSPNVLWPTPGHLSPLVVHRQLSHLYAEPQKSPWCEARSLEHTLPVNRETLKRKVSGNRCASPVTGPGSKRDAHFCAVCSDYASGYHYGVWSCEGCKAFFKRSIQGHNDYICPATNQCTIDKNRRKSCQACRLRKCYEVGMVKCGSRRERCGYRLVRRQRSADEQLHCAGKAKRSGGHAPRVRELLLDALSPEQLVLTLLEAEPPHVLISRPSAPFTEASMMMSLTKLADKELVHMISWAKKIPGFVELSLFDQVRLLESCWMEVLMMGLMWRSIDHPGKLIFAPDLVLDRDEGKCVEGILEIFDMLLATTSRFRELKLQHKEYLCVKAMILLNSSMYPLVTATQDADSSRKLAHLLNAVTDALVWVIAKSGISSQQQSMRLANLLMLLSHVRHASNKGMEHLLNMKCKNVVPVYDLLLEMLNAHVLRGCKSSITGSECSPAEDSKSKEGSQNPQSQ
# [13] = molecular target: T1, Estrogen receptor beta; assay: ERβ–SRC-3 coactivator interaction inhibitors, confirmation, orthogonal assay, biochemical, ELISA, streptavidin-HRP readout (AID 1060)
# [14] = molecular target: T2, Estrogen receptor (Homo sapiens, UniProt P03372);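 note: potency for inhibiting coactivator peptide recruitment to the receptor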
# T2 sequence (P03372 whole entry): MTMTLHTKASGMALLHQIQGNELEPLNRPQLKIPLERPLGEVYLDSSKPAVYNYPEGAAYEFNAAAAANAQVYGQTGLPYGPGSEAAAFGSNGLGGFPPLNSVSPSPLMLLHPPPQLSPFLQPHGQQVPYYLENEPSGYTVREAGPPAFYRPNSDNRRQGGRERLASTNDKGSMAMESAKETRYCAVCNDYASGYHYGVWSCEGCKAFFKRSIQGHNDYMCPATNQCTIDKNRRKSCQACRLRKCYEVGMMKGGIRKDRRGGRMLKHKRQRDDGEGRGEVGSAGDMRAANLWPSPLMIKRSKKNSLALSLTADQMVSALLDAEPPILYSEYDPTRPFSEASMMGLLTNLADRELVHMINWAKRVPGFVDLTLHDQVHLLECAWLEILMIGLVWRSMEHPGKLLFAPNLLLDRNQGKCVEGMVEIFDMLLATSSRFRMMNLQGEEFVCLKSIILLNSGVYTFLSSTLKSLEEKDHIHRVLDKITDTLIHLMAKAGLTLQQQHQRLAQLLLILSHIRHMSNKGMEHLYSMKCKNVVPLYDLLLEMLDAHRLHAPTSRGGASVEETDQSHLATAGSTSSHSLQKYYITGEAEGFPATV
# [15] = Counterscreen for activators of the function of SWI/SNF related, matrix associated, actin dependent regulator of chromatin, subfamily a, member 2 (SMARCA2, BRM): Luminescence-based cell-based high throughput dose response assay to identify non-selective compounds using the VP16 reporter assay.; type: functional
# [16] = molecular target: SWI/SNF-related matrix-associated actin-dependent regulator of chromatin subfamily A member 2 (Homo sapiens, UniProt P51531); assay: Luminescence-based cell-based high throughput dose response assay to identify activators of the function of SWI/SNF related, matrix associated, actin dependent regulator of chromatin, subfamily a, member 2 (SMARCA2, BRM).; type: functional
# Chain of SWI/SNF-related matrix-associated actin-dependent regulator of chromatin subfamily A member 2 (P51531 whole entry): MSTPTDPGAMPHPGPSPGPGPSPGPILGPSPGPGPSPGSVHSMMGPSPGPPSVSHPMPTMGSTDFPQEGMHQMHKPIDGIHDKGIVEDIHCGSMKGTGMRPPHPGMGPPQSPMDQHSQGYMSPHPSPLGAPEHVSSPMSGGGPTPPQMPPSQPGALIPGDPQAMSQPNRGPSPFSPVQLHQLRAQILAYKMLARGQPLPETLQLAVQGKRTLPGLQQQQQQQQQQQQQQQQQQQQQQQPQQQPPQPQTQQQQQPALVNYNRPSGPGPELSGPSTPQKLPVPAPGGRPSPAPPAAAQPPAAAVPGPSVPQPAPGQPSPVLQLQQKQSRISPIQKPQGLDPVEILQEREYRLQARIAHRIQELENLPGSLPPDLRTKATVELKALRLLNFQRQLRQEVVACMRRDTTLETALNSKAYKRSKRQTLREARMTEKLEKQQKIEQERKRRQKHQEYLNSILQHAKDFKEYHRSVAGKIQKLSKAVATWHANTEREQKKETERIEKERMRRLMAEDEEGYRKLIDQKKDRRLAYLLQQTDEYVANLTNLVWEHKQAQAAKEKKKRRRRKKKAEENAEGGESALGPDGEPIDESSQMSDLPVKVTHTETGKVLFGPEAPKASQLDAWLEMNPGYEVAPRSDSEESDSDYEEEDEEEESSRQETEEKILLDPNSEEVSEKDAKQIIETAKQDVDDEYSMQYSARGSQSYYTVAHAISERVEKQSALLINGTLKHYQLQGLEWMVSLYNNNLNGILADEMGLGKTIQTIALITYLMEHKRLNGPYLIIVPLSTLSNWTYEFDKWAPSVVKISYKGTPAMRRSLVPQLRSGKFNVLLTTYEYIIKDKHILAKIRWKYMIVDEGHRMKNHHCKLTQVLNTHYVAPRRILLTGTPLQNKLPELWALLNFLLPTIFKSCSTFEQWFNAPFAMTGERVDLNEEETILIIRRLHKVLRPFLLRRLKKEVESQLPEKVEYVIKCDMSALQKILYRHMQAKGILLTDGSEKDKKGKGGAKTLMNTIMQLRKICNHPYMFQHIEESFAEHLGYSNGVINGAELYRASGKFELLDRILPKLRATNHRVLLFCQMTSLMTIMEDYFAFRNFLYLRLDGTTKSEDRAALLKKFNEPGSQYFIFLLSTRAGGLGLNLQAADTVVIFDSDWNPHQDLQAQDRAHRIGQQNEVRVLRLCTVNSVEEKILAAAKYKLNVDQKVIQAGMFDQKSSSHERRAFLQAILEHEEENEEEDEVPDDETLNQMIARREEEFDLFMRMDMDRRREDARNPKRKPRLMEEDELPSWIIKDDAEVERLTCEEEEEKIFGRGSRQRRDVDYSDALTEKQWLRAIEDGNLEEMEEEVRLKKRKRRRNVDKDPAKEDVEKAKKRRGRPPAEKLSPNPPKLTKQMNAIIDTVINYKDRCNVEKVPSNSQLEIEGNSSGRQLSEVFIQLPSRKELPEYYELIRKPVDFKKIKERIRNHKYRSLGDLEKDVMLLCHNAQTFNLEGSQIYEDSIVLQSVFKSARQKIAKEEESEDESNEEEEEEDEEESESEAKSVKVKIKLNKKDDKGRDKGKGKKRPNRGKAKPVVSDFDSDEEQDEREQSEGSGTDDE
# [17] = Luminescence Cell-Based Dose Response HTS to Identify Inhibitors of 5'UTR Stem-Loop Driven Prion Protein mRNA Translation in H4 Neuroglioblastoma Cells. [Related pubchem assays: 1827 (Project Summary), 1813 (Primary HTS)]; type: functional
# [18] = inhibitors of SNCA 5'UTR-driven reporter translation, confirmation, H4 neuroglioma cells, luminescence (AID 1988); type: functional, cell-based
# [19] = inhibitors of firefly luciferase expression or activity, dose response, H4 neuroglioma cells, luminescence (AID 1990); type: functional, cell-based
# [20] = growth suppression of PTEN-null colon cells, dose response, cell-based, HCT116 PTEN knockout (AID 1047); type: functional;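 note: HCT116 colon tumor cells with PTEN knocked out; cells exposed to compound for 60 hours before readout; potency for loss of cell viability measured by luminescence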
# [21] = Luminescence Cell-Based Dose Retest to Confirm Inhibitors of Cancer Stem Cells. [Related pubchem assays (depositor defined):AID2717, AID2721]; type: functional; settings: Homo sapiens
# [22] = growth suppression of beta-catenin-knockout colon cells, dose response, cell-based, HCT116, human colon tumor (AID 1045); type: functional;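 note: HCT116 colon tumor cells with beta catenin knocked out; cells exposed to compound for 60 hours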
# [23] = inhibitors of PGC1a acetylation in cells, dose response, cell-based, cherry-picked samples (AID 720514); type: functional;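 note: potency may reflect raised or lowered acetylation signal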
# [24] = system: INS1; assay: beta cell apoptosis inhibitors, cytokine rescue, dose response, luminescence, retest (AID 449756); type: functional, cell-based; settings: Rattus norvegicus;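 note: cell death triggered by IL-1 beta plus TNF-alpha plus IFN-gamma mixture; protective hits raise ATP signal compared with cytokine alone wells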
# [25] = molecular target: T3, Replicative DNA helicase DnaB (Mycobacterium tuberculosis, UniProt P9WMR3); assay: DnaB intein splicing inhibitors, dose response, biochemical, cell-free fluorescence (AID 449749); type: functional
# T3 sequence (P9WMR3 whole entry): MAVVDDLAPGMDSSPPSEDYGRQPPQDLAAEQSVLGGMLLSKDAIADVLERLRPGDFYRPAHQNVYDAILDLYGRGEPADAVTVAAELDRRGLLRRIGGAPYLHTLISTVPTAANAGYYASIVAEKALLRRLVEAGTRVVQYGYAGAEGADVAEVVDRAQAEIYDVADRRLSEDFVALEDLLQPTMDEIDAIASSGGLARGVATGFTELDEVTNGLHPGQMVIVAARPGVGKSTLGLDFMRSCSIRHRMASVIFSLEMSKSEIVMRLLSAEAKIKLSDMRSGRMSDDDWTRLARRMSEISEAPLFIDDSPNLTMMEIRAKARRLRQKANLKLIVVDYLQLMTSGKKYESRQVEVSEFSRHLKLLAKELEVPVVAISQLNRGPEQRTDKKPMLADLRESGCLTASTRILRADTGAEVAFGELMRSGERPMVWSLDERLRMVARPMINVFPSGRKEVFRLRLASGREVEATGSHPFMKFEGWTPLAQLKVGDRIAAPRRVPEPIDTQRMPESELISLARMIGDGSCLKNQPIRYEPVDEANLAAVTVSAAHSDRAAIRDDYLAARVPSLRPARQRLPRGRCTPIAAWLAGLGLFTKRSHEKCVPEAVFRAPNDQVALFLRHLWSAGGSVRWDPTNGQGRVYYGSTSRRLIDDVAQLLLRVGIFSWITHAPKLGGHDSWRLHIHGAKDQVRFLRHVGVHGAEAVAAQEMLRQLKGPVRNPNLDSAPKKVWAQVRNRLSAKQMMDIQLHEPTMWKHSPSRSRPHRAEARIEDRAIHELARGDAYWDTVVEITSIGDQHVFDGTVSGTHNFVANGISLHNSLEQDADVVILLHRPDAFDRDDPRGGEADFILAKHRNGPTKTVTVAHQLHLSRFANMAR
# [26] = molecular target: T4, Protein RecA (Mycobacterium tuberculosis, UniProt P9WHJ3); assay: Fluorescence Cell-Free Homogeneous Dose Retest to Identify Inhibitors of RecA-Intein Splicing Activity. [Related pubchem assays (depositor defined):AID2097, AID2223, AID489010, AID492950]; type: functional
# T4 sequence (P9WHJ3 whole entry): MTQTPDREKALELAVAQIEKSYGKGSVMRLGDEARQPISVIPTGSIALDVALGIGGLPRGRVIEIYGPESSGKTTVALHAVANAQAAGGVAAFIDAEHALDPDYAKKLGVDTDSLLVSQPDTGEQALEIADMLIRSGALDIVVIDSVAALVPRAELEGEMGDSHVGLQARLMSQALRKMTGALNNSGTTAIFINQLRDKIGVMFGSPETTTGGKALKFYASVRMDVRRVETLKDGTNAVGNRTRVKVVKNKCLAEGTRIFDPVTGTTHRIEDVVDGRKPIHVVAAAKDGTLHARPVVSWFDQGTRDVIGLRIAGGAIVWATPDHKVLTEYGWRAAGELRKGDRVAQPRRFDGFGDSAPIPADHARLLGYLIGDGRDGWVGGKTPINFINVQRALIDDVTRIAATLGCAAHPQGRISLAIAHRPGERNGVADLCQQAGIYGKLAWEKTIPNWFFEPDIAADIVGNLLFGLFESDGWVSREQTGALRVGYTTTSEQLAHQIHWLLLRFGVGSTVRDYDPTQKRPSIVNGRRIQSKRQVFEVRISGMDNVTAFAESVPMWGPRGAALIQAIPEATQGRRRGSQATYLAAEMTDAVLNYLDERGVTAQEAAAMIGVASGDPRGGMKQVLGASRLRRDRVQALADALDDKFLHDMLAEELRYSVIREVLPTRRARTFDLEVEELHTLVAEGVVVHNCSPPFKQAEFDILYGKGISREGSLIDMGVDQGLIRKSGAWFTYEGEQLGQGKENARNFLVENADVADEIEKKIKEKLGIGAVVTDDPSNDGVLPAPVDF
# [27] = Fluorescence-based cell-based high throughput dose response assay for inhibitors of the interaction of nucleotide-binding oligomerization domain containing 2 (NOD2) and the receptor-interacting serine-threonine kinase 2 (RIPK2).; type: functional, Homo sapiens; settings: Homo sapiens
# [28] = system: Vero; assay: cells; type: functional, cell-based; settings: Chlorocebus sabaeus
# [29] = system: Vero; assay: cells; type: functional; settings: Chlorocebus sabaeus
# [30] = molecular target: Voltage-dependent T-type calcium channel subunit alpha-1H (Homo sapiens, UniProt O95180); type: functional;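 note: channel activity triggered by adding a high calcium stimulation buffer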
structure (smiles),measurement,setting,value
CCOc1ccc(NC(=O)CCCc2cc(-c3ccc(OCC)cc3)on2)cc1,IC50,[1],> 80 µM (inactive)
Cc1ccc(S(=O)(=O)Nc2ccc3c(c2)C(=O)N([C@H](C)CO)C[C@@H](C)[C@H](CN(C)S(=O)(=O)c2cccs2)OCCCC[C@@H](C)O3)cc1,AC50,[2],> 52 µM (inactive)
same,AC50,[3],32.1 µM (active)
Cc1c(C#N)c(O)n(CCO)c(=O)c1CN1CCCC(C)C1 (configuration not stated),EC50,[4],> 29.9 µM (inactive)
same,IC50,[5],> 29.9 µM (inactive)
c1ccc2[nH]c3c4ccccc4nc-3nc2c1,IC50,[6],13.9 µM (not active)
Cn1c(C(C)(O)C(O)c2ccccc2)nc2ccccc21 (configuration not stated),IC50,[7],> 64 µM (inactive)
CCN(C[C@@H]1N[C@@H](CO)[C@H]1c1ccc(-c2cccc(F)c2)cc1)C(=O)CN(C)C,AC50,[8],13 µM (active)
same,AC50,[9],25.7 µM (active)
CC(=O)c1cccc(S(=O)(=O)NCC2CCCCC2)c1,AC50,[8],5.36 µM (active)
COC(=O)c1[nH]c2ccc(C)cc2c1NC(=O)Nc1ccccc1OC,IC50,[1],> 80 µM (inactive)
Cc1ccc(Cl)cc1N1CCN(C(=O)c2noc(C)c2[N+](=O)[O-])CC1,AC50,[10],43.2 µM (active)
same,AC50,[11],6.41 µM (active)
CCn1nnc(NC(=O)CSc2ccc(Cl)cc2)n1,IC50,[12],4.65 µM (active)
same,IC50,[13],> 109 µM (not active)
same,IC50,[14],9.27 µM (active)
COc1cccc(CNC(=O)COC(=O)c2nc(Cl)c(Cl)c(Cl)c2Cl)c1,EC50,[15],> 91.2 µM (inactive)
same,EC50,[16],> 91.2 µM (inactive)
CN(c1ccc(C(=O)Nc2nccs2)cc1)S(=O)(=O)c1ccccc1,IC50,[6],46.9 µM (not active)
Cc1nccc(-c2cc(-c3ccc(Cl)cc3Cl)no2)n1,EC50,[15],> 91.2 µM (inactive)
same,EC50,[16],> 91.2 µM (inactive)
N#C[C@H]1[C@@H](c2ccc(C3=CCCCC3)cc2)[C@H](CO)N1C(=O)c1ccccn1,AC50,[2],34.2 µM (active)
CC(=O)c1c(COC(=O)c2ccco2)nc2ccccc2[n+]1[O-],EC50,[17],> 120 µM (not active)
same,IC50,[12],10.8 µM (active)
same,EC50,[18],> 120 µM (not active)
same,IC50,[13],< 77 µM (not active)
same,EC50,[19],> 120 µM (not active)
same,IC50,[14],29.2 µM (active)
O=C(NCc1cccnc1)/C(=C\c1ccc(-c2cccc(Cl)c2)o1)S(=O)(=O)c1ccccc1,EC50,[20],3.2 µM (active)
same,AC50,[21],2.35 µM (active)
same,EC50,[22],2.86 µM (active)
same,AC50,[23],15 µM (active)
same,AC50,[24],7.76 µM (active)
same,AC50,[25],13.7 µM (active)
same,EC50,[26],17.8 µM (active)
same,IC50,[27],10.8 µM (inactive)
same,IC50,[28],22.8 µM (active)
same,CC50,[29],9.17 µM (active)
CCC(=O)N(C)C[C@H]1Oc2cc(C#CC3CCCCC3)ccc2S(=O)(=O)N([C@@H](C)CO)C[C@H]1C,AC50,[8],7.88 µM (active)
same,AC50,[9],27.7 µM (active)
Cc1nnc(SCc2nc3ccccc3s2)n1N,EC50,[15],> 91.1 µM (inactive)
same,EC50,[16],> 91.1 µM (inactive)
O=C1NC2=C(C(=O)c3ccccc32)C(c2ccccc2)N1 (configuration not stated),IC50,[6],38.3 µM (not active)
CC(C)(C)OC(=O)N1CCN(c2ccc(NC(=O)Cn3nnc(-c4ccccc4)n3)cc2)CC1,IC50,[12],6.06 µM (active)
same,IC50,[13],2.7 µM (not active)
CS(=O)(=O)N1CCN(c2ccccc2NC(=O)CSc2ccc(Cl)cc2)CC1,IC50,[6],90.5 µM (not active)
same,EC50,[30],7.39 µM (active)
